Reference: patent publication US6545053B1, “Tricyclic compounds and drug compositions containing same” (Asahi Kasei Kogyo Kabushiki Kaisha, priority 1996, dated 2003)
Structures can show the parent of a compound that is named as a salt. Where two headings read alike, the source gives them in different places.

Assays:
canine adipocytes = assay: Lipolytic activity in canine fatty cell (glycerol release); type: cell-based, dogs; conditions: Canis lupus familiaris, Adipocyte; for EC50: 1 h, glycerol release, canine adipocytes, read-out: ED50 (the source's name); for Emax: read-out: Intrinsic activity (%)
Experimental: Lipolytic Activity in Canine Fatty Cell
Adipose tissues in the omentum were collected from dogs and minced and washed. Krebs-Ringer buffer solution containing 1 mg/ml Collagenase (Sigma) and 1% of bovine serum albumin was added in an amount of 3 ml per one gram of the tissue. These cells were then incubated at 37° C. for 30 minutes with shaking and then undigested tissues were removed with a nylon filter. The resulting adipocytes were washed four times with Krebs-Ringer buffer, and then the concentration of cells was diluted to 2×10^5/ml with Krebs-Ringer buffer solution containing 4% of bovine serum albumin. These cells were transferred to Eppendorf tubes each in an amount of 300 μl.
Each 300 μl of a culture medium containing the test compounds were added to these tubes and was held at 37° C. for 1 hour whith shaking. Stimulation was stoped by cooling with ice. After centrifugation, the adipocytes were taken off with an aspirator, whereupon the glycerol was determined using F-KIT GLTCEROL (Behringer-Manheim).

human β3 = target: T1, human β3 (Homo sapiens, UniProt P13945); assay: Human β3-agonist activity (cAMP in CHO cells transfected with human β3 gene); type: cell-based; conditions: for Emax: CHO, read-out: Intrinsic activity (%)
T1 construct: And then full length of human β3 gene was cloned using this fragment as a probe; expressed in transfected cells; host or cells: CHO cells (Chinese hamster ovary), pcDNA3 vector
T1 sequence (P13945 whole entry, the tested form may be a part): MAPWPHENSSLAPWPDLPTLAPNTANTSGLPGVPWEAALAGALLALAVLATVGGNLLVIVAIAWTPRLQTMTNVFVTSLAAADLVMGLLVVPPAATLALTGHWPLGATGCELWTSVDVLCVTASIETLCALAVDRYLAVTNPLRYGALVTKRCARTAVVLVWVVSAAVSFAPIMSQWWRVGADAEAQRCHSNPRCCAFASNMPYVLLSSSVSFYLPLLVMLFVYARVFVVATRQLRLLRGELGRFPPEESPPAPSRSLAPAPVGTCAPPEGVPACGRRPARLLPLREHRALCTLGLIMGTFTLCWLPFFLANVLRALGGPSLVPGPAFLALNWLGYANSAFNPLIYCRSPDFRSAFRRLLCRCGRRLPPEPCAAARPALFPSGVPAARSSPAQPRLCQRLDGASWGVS
Experimental: Human β3-agonist Activity
Human β3-agonist activity was examined using CHO cells (chinese hamster ovarian cells) to which pcDNA3 (in vitrogen) cells inserted human β3 gene was transfected. Human β3 fragment was obtained by PCR using human fat tissue cDNA (supplied from Clontech) with a β3 primer [Krief et al, J. Clin. Invest.
The cells were cultured in a HAM F-12 medium containing 10% of fetal bovine serum, 400 μg/ml of Geneticin (Gibco BRL). 100 U/ml penicillin and 100 μg/ml streptomycin. 5×10^5 cells were placed on a 6-well plate and cultured for 24 hours, after which the medium was changed to a HAM F-12 medium without serum and was kept for 2 hours. Each test compound was first dissolved in DMSO, and then diluted with a HAM F-12 medium containing 1 mM isobutylmethyl xanthine and 1 mM ascorbic acid. A 10-fold dilution in the range of 10^−5 to 10^−12 M was added into the cell.
After culturing for 30 minutes, culture medium was withdrawn, 0.5 ml of 1 N NaOH was added and was kept for 20 minutes. And then 0.5 ml of 1 N acetic acid was added with subsequent agitation and centrifugation. Finally the concentration of cAMP were analyzed using cAMP EIA KIT (Cayman). […] Isoprotelenol was purchased from Research Biochimicals International.

[1] = cAMP, CHO cells with human β3, read-out: ED50 (the source's name)

Compound | EC50 (canine adipocytes) [nM] | Emax (canine adipocytes) [%] | EC50 (human β3) [nM] | Emax (human β3) [%] | EC50 (human β3; [1]) [nM]
OCc1cc(C(O)CNCCOc2ccc3c(c2)[nH]c2ccccc23)ccc1O (racemic) [Example 67, (±)-2-[N-[2-(9H-Carbazol-2-yloxy)ethyl]amino]-1-[4-hydroxy-3-(hydroxymethyl)phenyl]ethanol Hydrochloride] | 54 | 94 | 28 | 109 | 
CC(=O)Nc1ccc2c(c1)Cc1cc(OCCNCC(O)c3ccc(O)c(NS(C)(=O)=O)c3)ccc1-2 (racemic) [Example 50, (±)-N-[5-[2-[2-(9H-7-Acetylaminofluoren-2-yloxy)ethylamino]-1-hydroxyethyl]-2-hydroxyphenyl]methanesulfonamide Hydrochloride] | 0.19 | 112 |  | 85 | 0.94
CS(=O)(=O)Nc1cc([C@@H](O)CNCCOc2ccc3c(c2)oc2ccccc23)ccc1O [Example 69, (R)-N-[5-[2-[2-(Dibenzofuran-3-yloxy)ethylamino]-1-hydroxyethyl]-2-hydroxyphenyl]methanesulfonamide Hydrochloride] | 0.65 | 107 | 0.016 | 94 | 
CN(C)S(=O)(=O)Nc1cc(C(O)CNCCOc2ccc3c(c2)[nH]c2ccccc23)ccc1O (racemic) [Example 25, (±)-N′-[5-[2-[2-(9H-Carbazol-2-yloxy)ethylamino]-1-hydroxyethyl]-2-hydroxyphenyl]-N,N-dimethylsulfamide Hydrochloride] | 510 | 70 | 2.1 | 95 | 
CC(C)S(=O)(=O)Nc1cc(C(O)CNCCOc2ccc3c(c2)[nH]c2ccccc23)ccc1O (racemic) [Example 54, (±)-N-[5-[2-[2-(9H-Carbazol-2-yloxy)ethylamino]-1-hydroxyethyl]-2-hydroxyphenyl]-2-propanesulfonamide Hydrochloride] | 25 | 118 | 8.4 | 109 | 
CN(C)S(=O)(=O)Nc1cc(C(O)CNCCOc2ccc3c(c2)sc2ccccc23)ccc1O (racemic) [Example 40, (±)-N′-[5-[2-[2-(Dibenzothiophen-3-yloxy)ethylamino]-1-hydroxyethyl]-2-hydroxyphenyl]-N, N-dimethylsulfamide Hydrochloride] | 13 | 92 | 200 | 97 | 
CS(=O)(=O)Nc1cc([C@@H](O)CNCCOc2ccc3c(c2)sc2ccccc23)ccc1O [Example 72, (R)-N-[5-[2-[2-(Dibenzothiophen-3-yloxy)ethylamino]-1-hydroxyethyl]-2-hydroxyphenyl]methanesulfonamide Hydrochloride] | 0.54 | 96 |  | 80 | 
CS(=O)(=O)Nc1cccc(C(O)CNCCOc2ccc3c(c2)sc2ccccc23)c1 (racemic) [Example 41, (±)-N-[3-[2-[2-(Dibenzothiophen-3-yloxy)ethlamino]-1-hydroxyethyl]phenyl]methanesulfonamide Hydrochloride] | 240 | 109 |  | 63 | 600
CN(C)S(=O)(=O)Nc1cc(C(O)CNCCOc2ccc3c(c2)oc2ccccc23)ccc1O (racemic) [Example 43, (±)-N′-[5-[2-[2-(Dibenzofuran-3-yloxy)ethylamino]-1-hydroxyethyl]-2-hydroxyphenyl]-N,N-dimethylsulfamide Hydrochloride] | 4 | 77 | 85 | 104 | 
